Literature values in US20240238336A1, “COPPER NANOCLUSTERS, METHODS FOR OBTAINING SAME AND THE USE THEREOF IN THE TREATMENT OF MENKES DISEASE” (priority 2021, published 2024).

Test system: Menkes syndrome
Details: child; daily subcutaneous injections for two and a half years

Q: Which development does the source give for `N[C@@H](Cc1c[nH]cn1)C(=O)O.[Cu]` [copper histidine] here?
A: continued to manifest severe developmental delays

Q: And the epilepsy crises?
A: epilepsy crises were eliminated

Q: What about the “pigmentation of skin and hair” value of the same molecule?
A: improved pigmentation of the skin and hair
